The IC50 is the midpoint of a concentration-inhibition curve. Low values mean inhibition by little substance, high ones a need for much substance.

For the assay, the target named is T1, PLK4 (Homo sapiens, UniProt O00444).
T1 construct: expressed in transfected cells; host or cells: HEK293 T cells (ATCC CRL-3216)
T1 sequence (O00444 1-970): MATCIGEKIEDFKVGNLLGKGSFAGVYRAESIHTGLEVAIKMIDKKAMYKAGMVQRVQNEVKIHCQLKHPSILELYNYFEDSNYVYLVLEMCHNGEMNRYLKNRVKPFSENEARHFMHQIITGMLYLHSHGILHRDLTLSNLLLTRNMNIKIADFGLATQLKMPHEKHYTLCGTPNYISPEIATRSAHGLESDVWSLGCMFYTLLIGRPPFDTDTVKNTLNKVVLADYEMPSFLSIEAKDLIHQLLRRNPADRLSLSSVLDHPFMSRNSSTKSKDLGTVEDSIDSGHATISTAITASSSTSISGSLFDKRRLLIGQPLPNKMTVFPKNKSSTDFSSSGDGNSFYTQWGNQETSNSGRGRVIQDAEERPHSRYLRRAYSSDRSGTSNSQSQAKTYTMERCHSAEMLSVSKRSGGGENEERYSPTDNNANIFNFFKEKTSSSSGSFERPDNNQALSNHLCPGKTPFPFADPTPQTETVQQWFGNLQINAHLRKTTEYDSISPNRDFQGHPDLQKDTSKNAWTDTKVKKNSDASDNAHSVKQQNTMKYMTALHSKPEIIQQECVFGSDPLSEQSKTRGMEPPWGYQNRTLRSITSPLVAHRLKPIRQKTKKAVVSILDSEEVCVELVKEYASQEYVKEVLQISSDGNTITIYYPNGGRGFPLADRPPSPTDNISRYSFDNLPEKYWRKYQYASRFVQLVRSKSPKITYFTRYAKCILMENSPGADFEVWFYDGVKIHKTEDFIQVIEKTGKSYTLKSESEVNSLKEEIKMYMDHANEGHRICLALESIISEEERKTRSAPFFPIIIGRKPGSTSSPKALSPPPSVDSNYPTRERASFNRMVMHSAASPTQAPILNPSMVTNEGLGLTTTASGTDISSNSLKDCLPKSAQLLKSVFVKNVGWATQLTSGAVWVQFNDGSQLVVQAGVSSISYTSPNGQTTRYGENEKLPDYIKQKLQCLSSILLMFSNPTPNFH
In words: PLK4 NanoBRET target engagement assay. To be noted: HEK293 T cells transfected with PLK4 NanoLuc fusion vector; K-5 tracer; 2 hrs incubation. The class given is binding. Here is the method: To determine the affinity of Compounds described herein in the PLK4 NanoBRET target engagement assay, HEK293 T cells (ATCC Product Number CRL-3216) are first transfected with the PLK4 NanoLuc fusion vector DNA and Transfection carrier DNA using the Fugene HD Transfection reagent in Opti-MEM No Phenol Red buffer. After an overnight incubation in a 37° C./5% CO2 incubator, the transfected HEK293 T cells are trypsinized, counted, and resuspended in Opti-MEM No Phenol Red buffer at a concentration of 200000 cells/mL. White 96-well plates are then plated with 85 μL of cells (17000 cells/well) to which 5 μL of the 20×K-5 tracer solution diluted in tracer dilution buffer is added. Finally, 10 μL of the 10× compounds are added and the plates and then incubated in a 37° C./5% CO2 incubator for 2 hrs. After the incubation, a 50 uL 3× solution of the substrate/inhibitor mix is added to the cells. The plate is then transferred in the Envision plate reader where the Acceptor emission (610 nm) and the Donor emission (450 nm) are measured.
The IC50 of compounds is determined as follows: • 1. The ratio between the Acceptor emission (610 nm)/Donor emission (450 nm) is calculated. • 2. This ratio is then multiplied by 1000 to obtain the mBRET units (multiplying by 1000 is an arbitrary step that simply makes the data easier to interpret; it has no impact on the data set itself) • 3. The mBRET units are then used in Scigilian Analyze software (https://analyze.scigilian.io) to determine the IC50 value using a 4-parameter fit analysis.
Background: BRET reads energy transfer from a luciferase to a nearby fluorophore.
Regarding `COc1c(Nc2cc(C)[nH]n2)nc(Nc2ccc(S(C)(=O)=O)cc2F)nc1-c1cnn(C)c1` [Compound 1, N^2-(2-fluoro-4-(methylsulfonyl)phenyl)-5-methoxy-N^4-(5-methyl-1H-pyrazol-3-yl)-6-(1-methyl-1H-pyrazol-4-yl)pyrimidine-2,4-diamine], half-maximal inhibition (IC50) required 220 nM. The result for `COc1c(Nc2cc(C)[nH]n2)nc(N(C)c2ccc(S(C)(=O)=O)cc2F)nc1-c1cnn(C)c1` [Compound 2, N^2-(2-fluoro-4-(methylsulfonyl)phenyl)-5-methoxy-N^2-methyl-N^4-(5-methyl-1H-pyrazol-3-yl)-6-(1-methyl-1H-pyrazol-4-yl)pyrimidine-2,4-diamine] reads 53 nM. With `CCN(c1nc(Nc2cc(C)[nH]n2)c(OC)c(-c2cnn(C)c2)n1)c1ccc(S(C)(=O)=O)cc1F` [Compound 3, N^2-ethyl-N^2-(2-fluoro-4-(methylsulfonyl)phenyl)-5-methoxy-N^4-(5-methyl-1H-pyrazol-3-yl)-6-(1-methyl-1H-pyrazol-4-yl)pyrimidine-2,4-diamine], the 50% inhibitory concentration (IC50) was 68 nM. The result for `COc1c(Nc2cc(C)[nH]n2)nc(N(Cc2ccc(F)cc2)c2ccc(S(C)(=O)=O)cc2F)nc1-c1cnn(C)c1` [Compound 4, N^2-(2-fluoro-4-(methylsulfonyl)phenyl)-N^2-(4-fluorobenzyl)-5-methoxy-N^4-(5-methyl-1H-pyrazol-3-yl)-6-(1-methyl-1H-pyrazol-4-yl)pyrimidine-2,4-diamine] reads 720 nM; that for `COc1c(Nc2cc(C)[nH]n2)nc(N2CCc3cc(S(C)(=O)=O)ccc32)nc1-c1cnn(C)c1` [Compound 5, 5-methoxy-N-(5-methyl-1H-pyrazol-3-yl)-6-(1-methyl-1H-pyrazol-4-yl)-2-(5-(methylsulfonyl)indolin-1-yl)pyrimidin-4-amine], 1100 nM; that for `COc1c(Nc2cc(C)[nH]n2)nc(N(C)c2ccc(S(C)(=O)=O)cc2F)nc1-c1ccn(C)n1` [Compound 6, N^2-(2-fluoro-4-(methylsulfonyl)phenyl)-5-methoxy-N^2-methyl-6-(1-methyl-1H-pyrazol-3-yl)-N^4-(5-methyl-1H-pyrazol-3-yl)pyrimidine-2,4-diamine], 49 nM. As for `COc1c(Nc2cc(C)[nH]n2)nc(N(C)c2ccc(S(=O)(=O)C3CC3)cc2F)nc1-c1cnn(C)c1` [Compound 7, N^2-(4-(cyclopropylsulfonyl)-2-fluorophenyl)-5-methoxy-N^2-methyl-N^4-(5-methyl-1H-pyrazol-3-yl)-6-(1-methyl-1H-pyrazol-4-yl)pyrimidine-2,4-diamine], the figure is 65 nM. As for `COc1c(Nc2cc(C)[nH]n2)nc(N(C)c2c(F)cc(S(C)(=O)=O)cc2F)nc1-c1cnn(C)c1` [Compound 8, N^2-(2,6-difluoro-4-(methylsulfonyl)phenyl)-5-methoxy-N^2-methyl-N^4-(5-methyl-1H-pyrazol-3-yl)-6-(1-methyl-1H-pyrazol-4-yl)pyrimidine-2,4-diamine], the figure is 6 nM; as for `COc1c(Nc2cc(C)[nH]n2)nc(Oc2ccc(S(C)(=O)=O)cc2F)nc1-c1cnn(C)c1` [Compound 9, 2-(2-fluoro-4-(methylsulfonyl)phenoxy)-5-methoxy-N-(5-methyl-1H-pyrazol-3-yl)-6-(1-methyl-1H-pyrazol-4-yl)pyrimidin-4-amine], 400 nM; as for `Cc1cc(Nc2nc(N(C)c3ccc(S(C)(=O)=O)cc3F)nc(-c3ccn(C)n3)c2C2CC2)n[nH]1` [Compound 12, 5-cyclopropyl-N^2-(2-fluoro-4-(methylsulfonyl)phenyl)-N^2-methyl-6-(1-methyl-1H-pyrazol-3-yl)-N^4-(5-methyl-1H-pyrazol-3-yl)pyrimidine-2,4-diamine], 16 nM. In turn, `Cc1cc(Nc2nc(N(C)c3c(F)cc(S(C)(=O)=O)cc3F)nc(-c3ccn(C)n3)c2C2CC2)n[nH]1` [Compound 13, 5-cyclopropyl-N^2-(2,6-difluoro-4-(methylsulfonyl)phenyl)-N^2-methyl-6-(1-methyl-1H-pyrazol-3-yl)-N^4-(5-methyl-1H-pyrazol-3-yl)pyrimidine-2,4-diamine] registered an IC50 of 5 nM. As for `Cc1cc(Nc2nc(Nc3ccc(S(C)(=O)=O)cc3F)nc(-c3cn(C)cn3)c2C2CC2)n[nH]1` [Compound 16, 5-cyclopropyl-N^2-(2-fluoro-4-(methylsulfonyl)phenyl)-6-(1-methyl-1H-imidazol-4-yl)-N^4-(5-methyl-1H-pyrazol-3-yl)pyrimidine-2,4-diamine], the figure is 200 nM. With `Cc1cc(Nc2nc(N(C)c3ccc(S(C)(=O)=O)cc3F)nc(-c3cn(C)cn3)c2C2CC2)n[nH]1` [Compound 17, 5-cyclopropyl-N^2-(2-fluoro-4-(methylsulfonyl)phenyl)-N^2-methyl-6-(1-methyl-1H-imidazol-4-yl)-N^4-(5-methyl-1H-pyrazol-3-yl)pyrimidine-2,4-diamine], the half-maximal inhibitory concentration (IC50) was 20 nM. The result for `COc1c(-c2cnn(C)c2)cc(N(C)c2ccc(S(C)(=O)=O)cc2F)nc1Nc1cc(C)[nH]n1` [Compound 19, N^6-(2-fluoro-4-(methylsulfonyl)phenyl)-3-methoxy-N^6-methyl-N^2-(5-methyl-1H-pyrazol-3-yl)-4-(1-methyl-1H-pyrazol-4-yl)pyridine-2,6-diamine] reads 56 nM. For the molecule `Cc1cc(Nc2nc(N(C)c3ccc(S(C)(=O)=O)cc3F)cc(-c3cnn(C)c3)c2C2CC2)n[nH]1` [Compound 20, 3-cyclopropyl-N^6-(2-fluoro-4-(methylsulfonyl)phenyl)-N^6-methyl-N^2-(5-methyl-1H-pyrazol-3-yl)-4-(1-methyl-1H-pyrazol-4-yl)pyridine-2,6-diamine], half-maximal inhibition (IC50) required 69 nM. The result for `COc1c(-c2cnn(C)c2)cc(Sc2ccc(S(C)(=O)=O)cc2F)nc1Nc1cc(C)[nH]n1` [Compound 21, 6-((2-fluoro-4-(methylsulfonyl)phenyl)thio)-3-methoxy-N-(5-methyl-1H-pyrazol-3-yl)-4-(1-methyl-1H-pyrazol-4-yl)pyridin-2-amine] reads 53 nM; that for `COc1c(Nc2cc(C)[nH]n2)nc(Sc2ccc(S(C)(=O)=O)cc2F)c(C)c1-c1cnn(C)c1` [Compound 22, 6-((2-fluoro-4-(methylsulfonyl)phenyl)thio)-3-methoxy-5-methyl-N-(5-methyl-1H-pyrazol-3-yl)-4-(1-methyl-1H-pyrazol-4-yl)pyridin-2-amine], 96 nM; that for `COc1c(Nc2cc(C)[nH]n2)nc(Nc2ccc(S(C)(=O)=O)cc2F)c(C)c1-c1cnn(C)c1` [Compound 23, N^2-(2-fluoro-4-(methylsulfonyl)phenyl)-5-methoxy-3-methyl-N^6-(5-methyl-1H-pyrazol-3-yl)-4-(1-methyl-1H-pyrazol-4-yl)pyridine-2,6-diamine], 210 nM.

`COc1c(Nc2cc(C)[nH]n2)nc(N(C)c2ccc(S(C)(=O)=O)cc2F)c(F)c1-c1cnn(C)c1` [Compound 24, 3-fluoro-N^2-(2-fluoro-4-(methylsulfonyl)phenyl)-5-methoxy-N^2-methyl-N^6-(5-methyl-1H-pyrazol-3-yl)-4-(1-methyl-1H-pyrazol-4-yl)pyridine-2,6-diamine] gave a half-inhibitory concentration (IC50) of 1100 nM. Regarding `[2H]C([2H])([2H])N(C([2H])([2H])[2H])S(=O)(=O)c1ccc(N(C)c2nc(Nc3cc(C)[nH]n3)c(C3CC3)c(-c3cnn(C)c3)n2)c(F)c1` [Compound 26], 5 nM corresponded to half-maximal inhibition (IC50).

Molecule `COc1c(Nc2cc(C)[nH]n2)nc(Oc2c(F)cc(Br)cc2F)nc1-c1cnn(C)c1` [Compound 29] showed an IC50 of 1300 nM. The result for `COc1c(Nc2cc(C)[nH]n2)nc(Oc2ccc(N(C)S(C)(=O)=O)cc2)nc1-c1cnn(C)c1` [Compound 31] reads 620 nM.

Source of the values: US20250177396A1, “POLO-LIKE KINASE 4 (PLK4) INHIBITORS, PHARMACEUTICAL COMPOSITIONS, METHODS OF PREPARATION AND USES THEREOF” (Repare Therapeutics Inc., priority 2022, published 2025).
